For one experiment, the system named is NCI-H1975. The experiment can be described thus: Growth of cancer cells (Cell Titer-Glo viability), NCI-H1975. The class given is cell-based. As to conditions: Homo sapiens; NCI-H1975 (EGFR L858R/T790M double mutant), 72 hrs. The source says: (§1) By testing the effect of the novel kinase inhibitors on the proliferation of cancer cells, the selectivity of the compounds of the present disclosure in inhibiting the proliferation of cancer cells was further assessed. In this example, human non-small cell lung cancer cell NCI-H1975 (expressing EGFR L858R/T790M double mutant gene), human skin squamous carcinoma cell A431 (expressing wild-type EGFR gene), non-small cell lung cancer NCI-H3255 (expressing EGFR L858R mutant gene), non-small cell lung cancer cell NCI-H3122 (expressing ALK gene), human non-small cell lung cancer cell A549 (expressing wild-type EGFR gene), human non-small cell lung cancer cell NCI-H2122 (expressing wild-type EGFR gene), human non-small cell lung cancer cell NCI-H460 (expressing wild-type EGFR gene), human non-small cell lung cancer cell PC-9 (expressing EGFR delE746_A750 mutant gene), Chinese hamster ovary cell CHO (Cricetulus griseus, hamster, Chinese, ovary), Chinese hamster lung cell CHL, human non-small cell lung cancer cell HCC827 (expressing mutant EGFR del19 gene), human lung adenocarcinoma cell HCC4006 (expressing mutant EGFR del19 gene), human non-small cell lung cancer cell NCI-H2228 (expressing wild-type ALK gene), and mouse primary B cell BaF3 were used, and the above cells were all purchased from ATCC (US). In addition, mouse BaF3-TEL-ALK (stably expressing ALK kinase), mouse BaF3-ALK-F1174L (stably expressing mutant ALK F1174L kinase), mouse BaF3-NPM-ALK (stably expressing ALK kinase), mouse BaF3-TEL-EGFR (stably expressing EGFR kinase), mouse BaF3-TEL-EGFR-T790M (stably expressing EGFR T790M mutant kinase), mouse BaF3-FL-EGFR-Del19 (stably expressing EGFR delE746_A750 mutant kinase), mouse BaF3-TEL-EGFR-L858R (stably expressing EGFR L858R mutant kinase), mouse BaF3-FL-EGFR-T790M-L858R (stably expressing EGFR T790M/L858R mutant kinase), mouse BaF3-TEL-INSR (stably expressing INSR protein), mouse BaF3-TEL-IGF1R (stably expressing IGF1R Protein), mouse BaF3-EML4-ALK (stably expressing EML4-ALK Protein), mouse BaF3-TEL-JAK3 (stably expressing JAK3 kinase protein), mouse BaF3-TEL-CSF1R (stably expressing CSF1R protein), and mouse BaF3-TEL-ALK-F1196M (stably expressing ALK F1196M mutant kinase) were also used in this example. The above cell lines were all established by our laboratory via the following process: kinase proteins or protein domain sequences of human ALK, ALK F1174L, EGFR, EGFR T790M, EGFR delE746_A750, EGFR L858, EGFR T790M/L858R, INSR, IGF1R, EML4-ALK, JAK3, CSF1R, ALK F1196M were amplified respectively by PCR, and were respectively inserted into MSCV-Puro vector (Clontech) with N-terminal TEL fragments and/or NPM fragments and/or TPR fragments; the resultants were stably transfected into mouse BaF3 cells by the means of retrovirus, and the IL-3 growth factors were removed, and eventually the ALK, ALK F1174L, EGFR, EGFR T790M, EGFR delE746_A750, EGFR L858, EGFR T790M/L858R, INSR, IGF1R, EML4-ALK, JAK3, CSF1R, ALK F1196M-transferred protein dependent cell lines were obtained.
(§2) The number of viable cells was determined quantitatively by a microplate reader using Cell Titer-Glo® (Promega, US) chemiluminescence cell viability assay kit.

A further experiment concerns PC-9. The experiment can be described thus: Growth of cancer cells (Cell Titer-Glo viability), PC-9. The class given is cell-based. As to conditions: Homo sapiens; PC-9 (EGFR delE746_A750 mutant), 72 hrs.
Excerpt: as §1, §2
On the technique in general: ATP-based viability assays read luminescence as a measure of living cells.

A further experiment has as its system A431. The experiment can be described thus: Growth of cancer cells (Cell Titer-Glo viability), A431. It counts as cell-based. As to conditions: Homo sapiens.
Excerpt: as §1, §2

Another experiment deals with CHO. The experiment can be described thus: Cell growth (Cell Titer-Glo viability), CHO. It counts as cell-based, Chinese hamster. The following applies: Cricetulus griseus.
Excerpt: as §1, §2

The next experiment deals with CHL. The experiment can be described thus: Cell growth (Cell Titer-Glo viability), CHL. The class given is cell-based, Chinese hamster. The following applies: Cricetulus griseus.
Excerpt: as §1, §2

In the next experiment the test system is NCI-H2122. In words: Growth of cancer cells (Cell Titer-Glo viability), NCI-H2122. The class given is cell-based. The following applies: Homo sapiens; NCI-H2122 (wild-type EGFR), 72 hrs.
Excerpt: as §1, §2

Another experiment concerns A549. In words: Growth of cancer cells (Cell Titer-Glo viability), A549. The class given is cell-based. As to conditions: Homo sapiens; A549 (wild-type EGFR), 72 hrs.
Excerpt: as §1, §2

In a further experiment the test system is NCI-H3122. In words: Growth of cancer cells (Cell Titer-Glo viability), NCI-H3122. It counts as cell-based. The following applies: Homo sapiens.
Excerpt: as §1, §2

The subject of the next experiment is NCI-H2228. The experiment can be described thus: Growth of cancer cells (Cell Titer-Glo viability), NCI-H2228. It counts as cell-based. As to conditions: Homo sapiens; NCI-H2228 (wild-type ALK), 72 hrs.
Excerpt: as §1, §2

The subject of another experiment is BaF3. In words: Cell growth (Cell Titer-Glo viability), BaF3. It counts as cell-based. The following applies: BaF3 mouse primary B cell, 72 hrs.
Excerpt: as §1, §2

For another experiment, the system named is BaF3-TEL-ALK. The experiment can be described thus: Cell growth (Cell Titer-Glo viability), BaF3-TEL-ALK. The following applies: Mus musculus; BaF3-TEL-ALK (stably expressing ALK kinase), 72 hrs. The class given is cell-based.
Excerpt: as §1, §2

For the next experiment, the system named is BaF3-NPM-ALK. The experiment can be described thus: Cell growth (Cell Titer-Glo viability), BaF3-NPM-ALK. It counts as cell-based. The following applies: Mus musculus; BaF3-NPM-ALK (stably expressing ALK kinase), 72 hrs.
Excerpt: as §1, §2

In a further experiment the test system is HCC827. In words: Growth of cancer cells (Cell Titer-Glo viability), HCC827. It counts as cell-based. The following applies: Homo sapiens; HCC827 (mutant EGFR del19), 72 hrs.
Excerpt: as §1, §2

Another experiment has as its system BaF3-ALK-F1174L. In words: Cell growth (Cell Titer-Glo viability), BaF3-ALK-F1174L. The class given is cell-based. As to conditions: Mus musculus; BaF3-ALK-F1174L (mutant ALK F1174L kinase), 72 hrs.
Excerpt: as §1, §2

[1] abbreviates: A-431, A431 (wild-type EGFR), 72 hrs, read-out: GI50.
[2] abbreviates: CHO Chinese hamster ovary cell, 72 hrs, read-out: GI50.
The mark [3] stands for this setting: CHL Chinese hamster lung cell, 72 hrs, read-out: GI50.
The mark [4] stands for this setting: NCI-H3122 (expressing ALK gene), 72 hrs, read-out: GI50.

Structures are written as SMILES. Like-named read-outs stand apart in the source and are kept apart here.

Results on eight molecules are retold here after patent publication US10350210B2, “EGFR and ALK dual inhibitor” (PRECEDO PHARMACEUTICALS CO., LTD, priority 2015, dated 2019).

By GI50 is commonly meant the concentration at which growth is held to half of that of the control.

Turning to `C=CC(=O)Nc1cc(Nc2ncc(Cl)c(Nc3ccccc3S(=O)(=O)C(C)C)n2)c(OC)cc1N1CCN(Cc2ccccc2)CC1` [Compound 16, N-(2-(4-benzylpiperazin-1-yl)-5-(5-chloro-4-(2-(isopropylsulfonyl)phenylamino)pyrimidin-2-ylamino)-4-methoxyphenyl)acrylamide], the GI50 in the experiment with NCI-H1975 is 0.31 µM; in the experiment with PC-9 it was 0.23 µM; in the experiment with A431 (setting [1]), 4.2 µM; with CHO (setting [2]), 1.3 µM; with CHL (setting [3]), > 10 µM; in the experiment on NCI-H2122, 1.1 µM. For the same molecule, the GI50 was determined as 4.5 µM in the experiment on A549; 0.02 µM in the experiment on NCI-H3122 (setting [4]); 0.066 µM with NCI-H2228; 4.1 µM with BaF3; 0.016 µM in the experiment with BaF3-TEL-ALK; 0.016 µM in the experiment on BaF3-NPM-ALK.
For `C=CC(=O)Nc1cc(Nc2ncc(Cl)c(Nc3ccccc3S(=O)(=O)C(C)C)n2)c(OC)cc1N1CCN(CC2CC2)CC1` [Compound 14, N-(5-(5-chloro-4-(2-(isopropylsulfonyl)phenylamino)pyrimidin-2-ylamino)-2-(4-(cyclopropylmethyl)piperazin-1-yl)-4-methoxyphenyl)acrylamide], the GI50 with NCI-H1975 came to 0.1 µM; in the experiment with A431 (setting [1]) it was 0.35 µM; in the experiment with CHO (setting [2]), 0.3 µM; with CHL (setting [3]) it was 2 µM; in the experiment with NCI-H2122, 4.3 µM; with A549 it was 0.13 µM. The GI50 is 0.032 µM in the experiment on HCC827, < 0.0003 µM with NCI-H3122 (setting [4]), 0.028 µM in the experiment on NCI-H2228 and < 0.0003 µM in the experiment on BaF3-NPM-ALK.
Regarding `C=CC(=O)Nc1cc(Nc2ncc(Cl)c(Nc3ccccc3S(=O)(=O)C(C)C)n2)c(OC)cc1N1CCN[C@H](C)C1` [Compound 28, (R)—N-(5-(5-chloro-4-(2-(isopropylsulfonyl)phenylamino)pyrimidin-2-ylamino)-4-methoxy-2-(3-methylpiperazin-1-yl)phenyl)acrylamide], the GI50 in the experiment with NCI-H1975 was 0.14 µM; with PC-9, 0.071 µM; in the experiment with A431 (setting [1]) it was 0.071 µM; in the experiment on CHO (setting [2]), 1.7 µM; in the experiment on CHL (setting [3]), 3.3 µM; in the experiment on NCI-H2122, 0.621 µM. For the same molecule, the GI50 stood at 0.48 µM in the experiment on A549; 0.064 µM in the experiment on HCC827; 0.031 µM with NCI-H2228; 1 µM with BaF3-ALK-F1174L; 0.001 µM with BaF3-NPM-ALK.
For `C=CC(=O)Nc1cc(Nc2ncc(Cl)c(Nc3ccccc3S(=O)(=O)C(C)C)n2)c(OC)cc1N1CCOCC1` [Compound 7, N-(5-(5-chloro-4-(2-(isopropylsulfonyl)phenylamino)pyrimidin-2-ylamino)-4-methoxy-2-morpholinylphenyl) acrylamide], the GI50 amounted to 1.2 µM with NCI-H1975; 0.09 µM with PC-9; 0.84 µM in the experiment with A431 (setting [1]); 2.9 µM in the experiment with CHO (setting [2]); 9.1 µM with CHL (setting [3]); 1.03 µM in the experiment on NCI-H2122. The GI50 in the experiment on A549 worked out at 0.36 µM; in the experiment on HCC827, 0.11 µM; with NCI-H2228 it was 0.031 µM; in the experiment with BaF3-ALK-F1174L, 0.63 µM; with BaF3-NPM-ALK it was 0.001 µM.
In the case of `C=CC(=O)Nc1cc(Nc2ncc(Cl)c(Nc3ccccc3S(=O)(=O)C(C)C)n2)c(OC)cc1N1CCN(CCOC)CC1` [Compound 13, N-(5-(5-chloro-4-(2-(isopropylsulfonyl)phenylamino)pyrimidin-2-ylamino)-4-methoxy-2-(4-(2-methoxyethyl)piperazin-1-yl)phenyl)acrylamide], the GI50 is 0.041 µM in the experiment on NCI-H1975; 0.012 µM in the experiment on PC-9; 0.47 µM in the experiment on A431 (setting [1]); 0.47 µM in the experiment on CHO (setting [2]); 3.7 µM in the experiment on CHL (setting [3]); 0.63 µM in the experiment on A549. In addition, the 50% growth inhibitory concentration (GI50) in the experiment on HCC827 is 0.015 µM; in the experiment on NCI-H3122 (setting [4]), < 0.0003 µM; in the experiment on NCI-H2228, 0.0059 µM; with BaF3 it was 1.4 µM; in the experiment with BaF3-TEL-ALK it was > 10 µM; with BaF3-NPM-ALK it was < 0.0003 µM.
For the molecule `C[C@@H](Oc1cc(-c2cnn(C3CCNCC3)c2)cnc1N)c1c(Cl)ccc(F)c1Cl` [Crizotinib, reference compound], the GI50 with A431 (A-431, 72 h) was found to be 1 µM; in the experiment on CHO (CHO, 72 h), 6.4 µM; with CHL (CHL, 72 h), 1.9 µM; in the experiment on NCI-H3122 (NCI-H3122, 72 h), 0.073 µM.
In the case of `C=CC(=O)Nc1cc(Nc2ncc(Cl)c(Nc3ccccc3S(=O)(=O)C(C)C)n2)c(OC)cc1N1CCN(C2CCCCC2)CC1` [Compound 15, N-(5-(5-chloro-4-(2-(isopropylsulfonyl)phenylamino)pyrimidin-2-ylamino)-2-(4-cyclohexylpiperazin-1-yl)-4-methoxyphenyl)acrylamide], the GI50 in the experiment on NCI-H1975 came out at 0.077 µM; with PC-9, 0.036 µM; with A431 (setting [1]) it was 0.37 µM; in the experiment on CHO (setting [2]) it was 0.17 µM; in the experiment on CHL (setting [3]), 1.4 µM; in the experiment on A549, 0.39 µM. In addition, the concentration for 50% growth inhibition (GI50) in the experiment on HCC827 is 0.038 µM; with NCI-H3122 (setting [4]), < 0.0003 µM; in the experiment with NCI-H2228 it was 0.07 µM; with BaF3 it was 0.3 µM; in the experiment on BaF3-TEL-ALK it was 0.0075 µM; in the experiment with BaF3-NPM-ALK, < 0.0003 µM.
`C=CC(=O)Nc1cc(Nc2ncc(Cl)c(Nc3ccccc3S(=O)(=O)C(C)C)n2)c(OC)cc1N1CCN[C@@H](C)C1` [Compound 29, (S)—N-(5-(5-chloro-4-(2-(isopropylsulfonyl)phenylamino)pyrimidin-2-ylamino)-4-methoxy-2-(3-methylpiperazin-1-yl)phenyl)acrylamide]: the GI50 came out at 0.12 µM in the experiment with NCI-H1975; 0.062 µM in the experiment with PC-9; 0.1 µM with A431 (setting [1]); 1.5 µM in the experiment with CHO (setting [2]); 3.7 µM in the experiment with CHL (setting [3]); 0.68 µM in the experiment with NCI-H2122. For the same molecule, the GI50 came out at 0.69 µM with A549; 0.059 µM in the experiment on HCC827; 0.073 µM with NCI-H2228; 0.95 µM in the experiment on BaF3-ALK-F1174L; 0.003 µM in the experiment on BaF3-NPM-ALK.
